For assay [1], the target named is T1, Avi-KRAS G12D/Q25A (1-169) GppNHp/3×FLAG-PI3KCA (157-299) (Homo sapiens, UniProt P01116, G12D/Q25A).
T1 construct: Avi-KRAS G12D/Q25A (1-169) GppNHp
The assay is described as follows: HTRF PI3KCA-KRAS G12D/Q25A-GppNHp disruption assay. In kind it is biochemical. Particulars: 1 h incubation. The method, boiled down: (§1)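 Compounds titrated from 100 μM in a 10-point series, incubated with protein mix 1 h at room temperature, then HTRF reagents a further 1 h. Time-resolved fluorescence read (excitation 320 nm, emission 615 nm); activity expressed as percentage of DMSO control.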

The test system of assay [2] is pERK in GP2d cells (KRAS G12D). The experiment in a line: Cell-based pERK HTRF assay. Particulars: 60 min incubation. The method, boiled down: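 GP2d cells (DMEM, 10% FBS) treated 60 min with compounds in a 9-point half-log series from 1 μM top concentration, 0.25% DMSO. Lysates read for pERK by HTRF (d2/Eu cryptate antibodies) after 4–24 h at room temperature; emission at 615 nm.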

In assay [3] the target is T2, Avi-KRAS G12D (1-169) GppNHp/RAF1 RBD-3×FLAG (52-151) (Homo sapiens, UniProt P01116, G12D).
T2 construct: Avi-KRAS G12D (1-169) GppNHp
T2 sequence (P01116 1-169 isoform P01116-2 G12D limits assumed): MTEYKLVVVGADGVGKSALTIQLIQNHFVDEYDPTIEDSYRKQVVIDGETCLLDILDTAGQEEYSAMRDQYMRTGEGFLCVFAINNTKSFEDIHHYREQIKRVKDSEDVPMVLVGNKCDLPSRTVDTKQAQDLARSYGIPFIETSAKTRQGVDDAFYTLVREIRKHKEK
The experiment in a line: HTRF Raf1-KRAS G12D-GppNHp disruption assay. It counts as biochemical. Particulars: 1 h incubation. The method, boiled down:
as §1

Assay [4] addresses GDP KRAS G12D (Homo sapiens, UniProt P01116, G12D). The experiment in a line: SPR binding affinity, GDP KRAS G12D. Particulars: GDP-bound KRAS G12D.
In assay [5] the target is GppNHp KRAS G12D (Homo sapiens, UniProt P01116, G12D). The experiment in a line: SPR binding affinity, GppNHp KRAS G12D. Particulars: GppNHp-bound KRAS G12D.
Sequence of GppNHp KRAS G12D (P01116 1-188 isoform P01116-2 G12D): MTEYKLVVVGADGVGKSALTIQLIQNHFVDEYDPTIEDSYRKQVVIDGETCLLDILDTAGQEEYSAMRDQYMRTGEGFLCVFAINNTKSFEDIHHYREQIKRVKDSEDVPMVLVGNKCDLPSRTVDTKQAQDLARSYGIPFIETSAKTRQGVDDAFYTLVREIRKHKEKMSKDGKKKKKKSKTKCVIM

Like-named read-outs stand apart in the source and are kept apart here.

T1 sequence (P01116 1-169 isoform P01116-2 G12D/Q25A limits assumed): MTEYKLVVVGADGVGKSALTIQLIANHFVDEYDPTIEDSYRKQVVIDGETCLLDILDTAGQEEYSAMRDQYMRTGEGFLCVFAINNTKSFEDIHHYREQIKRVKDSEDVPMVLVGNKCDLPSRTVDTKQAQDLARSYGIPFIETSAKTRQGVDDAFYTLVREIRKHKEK
Sequence of GDP KRAS G12D (P01116 1-188 isoform P01116-2 G12D): as the sequence (P01116 1-188 isoform P01116-2 G12D) above

Take `Nc1nc2c(-c3c(C(F)(F)F)cc4c(N5CC6CC5CN6)nc(OC[C@@]56CCCN5C[C@H](F)C6)nc4c3F)ccc(F)c2s1` (some centres unmarked) [Compound 241]: the IC50 in assay [1] was 100 to 1000 nM; in assay [2] (read-out: pERK-Gp2D-1hr) it was at most 100 nM; in assay [3], 100 to 1000 nM. The Kd in assay [4] and in assay [5] was at most 100 nM throughout.
For `Nc1nc2c(-c3c(C(F)(F)F)cc4c(N5CC6CCC(C5)N6)nc(OC[C@@]56CCCN5C[C@H](F)C6)nc4c3F)ccc(F)c2s1` (single isomer, unassigned) [Compound 245], the IC50 in assay [1] is at most 100 nM; in assay [2] (GP2d, 1 h) it was at most 100 nM; in assay [3], at most 100 nM. For the same compound, the Kd in assay [4] and in assay [5] was at most 100 nM throughout.
As to `CN1C2CCC1CN(c1nc(OC[C@@]34CCCN3C[C@H](F)C4)nc3c(F)c(-c4ccc(F)c5sc(N)nc45)c(C(F)(F)F)cc13)C2` [Compound 221], the IC50 fell in the range of 1000 to 10000 nM in assay [1]; 100 to 1000 nM in assay [2] (GP2d, 1 h); 1000 to 10000 nM in assay [3]. In addition, the equilibrium dissociation constant (Kd) in assay [4] is at most 100 nM; in assay [5], 1000 to 10000 nM.
For `Nc1nc2c(-c3c(C(F)(F)F)cc4c(N[C@@H]5CCNC5)nc(OC[C@@]56CCCN5C[C@H](F)C6)nc4c3F)ccc(F)c2s1` (atropisomer, axis not shown) [Compound 248], the IC50 in assay [1] is 100 to 1000 nM; in assay [2] (GP2d, 1 h) it was above 1000 nM; in assay [3] it was at most 100 nM. The Kd in assay [4] and in assay [5] was at most 100 nM in each case.
As for `Nc1nc2c(-c3c(C(F)(F)F)cc4c(NC5CNC5)nc(OCC56CCCN5CCC6)nc4c3F)ccc(F)c2s1` [Compound 120], the IC50 was 100 to 1000 nM in assay [1]; above 1000 nM in assay [2] (GP2d, 1 h); 100 to 1000 nM in assay [3]. Moreover, the Kd in assay [4] and in assay [5] was at most 100 nM in each case.
As for `Nc1nc2c(-c3c(C(F)(F)F)cc4c(N5CC6CCC(C5)N6)nc(OCC56CCCN5CCC6)nc4c3F)ccc(F)c2s1` [Compound 158, 4-(4-(3,8-diazabicyclo[3.2.1]octan-3-yl)-8-fluoro-2-((tetrahydro-1H-pyrrolizin-7a(5H)-yl)methoxy)-6-(trifluoromethyl)quinazolin-7-yl)-7-fluorobenzo[d]thiazol-2-amine], the IC50 in assay [1] was 100 to 1000 nM; in assay [2] (GP2d, 1 h) it was at most 100 nM; in assay [3], 100 to 1000 nM. For the same compound, the Kd in assay [4] and in assay [5] was at most 100 nM throughout.
For the compound `N#Cc1c(N)sc2c(F)ccc(-c3c(C(F)F)cc4c(N5C[C@H]6CC[C@@H](C5)N6)nc(OC[C@@]56CCCN5C[C@H](F)C6)nc4c3F)c12` [Compound 301, 4-(4-((1R,5S)-3,8-diazabicyclo[3.2.1]octan-3-yl)-6-(difluoromethyl)-8-fluoro-2-(((2R,7aS)-2-fluorotetrahydro-1H-pyrrolizin-7a(5H)-yl)methoxy)quinazolin-7-yl)-2-amino-7-fluorobenzo[b]thiophene-3-carbonitrile], the IC50 in assay [1] was 100 to 1000 nM; in assay [2] (GP2d, 1 h) it was at most 100 nM; in assay [3], 100 to 1000 nM. Further, the Kd in assay [4] and in assay [5] was at most 100 nM in each case.
As to `Nc1nc2c(-c3c(C(F)(F)F)cc4c(N5CC6CCC(C5)N6)nc(OC[C@@]56CCCN5C[C@H](F)C6)nc4c3F)ccc(F)c2s1` [Compound 219, 4-(4-(3,8-diazabicyclo[3.2.1]octan-3-yl)-8-fluoro-2-(((2R,7aS)-2-fluorotetrahydro-1H-pyrrolizin-7a(5H)-yl)methoxy)-6-(trifluoromethyl)quinazolin-7-yl)-7-fluorobenzo[d]thiazol-2-amine], the IC50 in assay [1] was 100 to 1000 nM; in assay [2] (GP2d, 1 h) it was at most 100 nM; in assay [3] it was at most 100 nM. In addition, the dissociation constant (Kd) in assay [4] and in assay [5] was at most 100 nM throughout.
Turning to `N#Cc1c(N)sc2c(F)ccc(-c3c(C(F)(F)F)cc4c(N5C[C@H]6CC[C@@H](C5)N6)nc(OC[C@@]56CCCN5C[C@H](F)C6)nc4c3F)c12` [Compound 255, 4-(4-((1R,5S)-3,8-diazabicyclo[3.2.1]octan-3-yl)-8-fluoro-2-(((2R,7aS)-2-fluorotetrahydro-1H-pyrrolizin-7a(5H)-yl)methoxy)-6-(trifluoromethyl)quinazolin-7-yl)-2-amino-7-fluorobenzo[b]thiophene-3-carbonitrile], the IC50 in assay [1] was 100 to 1000 nM; in assay [2] (GP2d, 1 h), at most 100 nM; in assay [3] it was at most 100 nM. The Kd in assay [4] and in assay [5] was at most 100 nM each time.
Take `CN(c1nc(OC[C@@]23CCCN2C[C@H](F)C3)nc2c(F)c(-c3ccc(F)c4sc(N)nc34)c(C(F)(F)F)cc12)[C@H]1CNC[C@H]1F` [Compound 290]: the IC50 is 100 to 1000 nM in assay [1]; at most 100 nM in assay [2] (GP2d, 1 h); 100 to 1000 nM in assay [3]. The Kd in assay [4] was at most 100 nM; in assay [5] it was 100 to 1000 nM.
`N#Cc1c(N)sc2c(F)ccc(-c3c(Cl)cc4c(N5C[C@H]6CC[C@@H](C5)N6)nc(OC[C@@]56CCCN5C[C@H](F)C6)nc4c3F)c12` [Compound 260, 4-(4-((1R,5S)-3,8-diazabicyclo[3.2.1]octan-3-yl)-6-chloro-8-fluoro-2-(((2R,7aS)-2-fluorotetrahydro-1H-pyrrolizin-7a(5H)-yl)methoxy)quinazolin-7-yl)-2-amino-7-fluorobenzo[b]thiophene-3-carbonitrile]: the IC50 in assay [1] was 100 to 1000 nM; in assay [2] (GP2d, 1 h), at most 100 nM; in assay [3], at most 100 nM. The dissociation constant (Kd) in assay [4] and in assay [5] was at most 100 nM each time.
As to `CN(C)C1CN(c2nc(NCCN)c3cc(Cl)c(-c4ccc(F)c5sc(N)nc45)c(F)c3n2)C1` [Compound 46, N^1-(7-(2-amino-7-fluorobenzo[d]thiazol-4-yl)-6-chloro-2-(3-(dimethylamino)azetidin-1-yl)-8-fluoroquinazolin-4-yl)ethane-1,2-diamine], the IC50 in assay [1] and in assay [3] was 10000 to 30000 nM throughout. In addition, the Kd is 1000 to 10000 nM in assay [4] and 10000 to 30000 nM in assay [5].
Regarding `Nc1nc2c(-c3c(Cl)cc4c(N5CCNCC5)ncnc4c3F)ccc(F)c2s1` [Compound 1, 4-(6-chloro-8-fluoro-4-(piperazin-1-yl)quinazolin-7-yl)-7-fluorobenzo[d]thiazol-2-amine], the IC50 in assay [1] and in assay [3] was 10000 to 30000 nM throughout. For the same compound, the results for the Kd in assay [4] and in assay [5] were 1000 to 10000 nM and 10000 to 30000 nM, respectively.
`Nc1nc2c(-c3c(Cl)cc4c(N5CC6CCC(C5)N6)nc(OCC56CCCN5CCC6)nc4c3F)ccc(F)c2s1` [Compound 157, 4-(4-(3,8-diazabicyclo[3.2.1]octan-3-yl)-6-chloro-8-fluoro-2-((tetrahydro-1H-pyrrolizin-7a(5H)-yl)methoxy)quinazolin-7-yl)-7-fluorobenzo[d]thiazol-2-amine]: the IC50 in assay [1] was 100 to 1000 nM; in assay [2] (GP2d, 1 h) it was 100 to 1000 nM; in assay [3], 100 to 1000 nM. The Kd in assay [4] and in assay [5] was at most 100 nM in each case.

The values are drawn from patent US20240246954A1, “COMPOSITIONS AND METHODS FOR INHIBITING KRAS” (TheRas, Inc., priority 2021, published 2024).
